Experimental data taken from patent US11685732B2, “MYST family histone acetyltransferase inhibitors” (Epizyme, Inc., priority 2017, dated 2023).

Legend:
KAT-6A = KAT-6A (Homo sapiens (Human), UniProt Q92794); assay: KAT-6A biochemical inhibition assay (SAMDI mass spectrometry)
Summary of the method: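 IC50 values came from SAMDI time-of-flight mass spectrometry after formic acid quench (0.5% final). Acetylation ran 90 min at 25 °C with 1 μM acetyl coenzyme A and 1 μM peptide substrate, following compound pre-incubation with 12.5 nM KAT-6A in Tris buffer pH 8.0 containing DTT, 2% DMSO final.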

KAT-8 = KAT-8 (Homo sapiens (Human), UniProt Q9H7Z6); assay: KAT-8 biochemical inhibition assay (SAMDI mass spectrometry)
KAT-8, sequence (Q9H7Z6 other isoform, or with tags, fused parts or gaps): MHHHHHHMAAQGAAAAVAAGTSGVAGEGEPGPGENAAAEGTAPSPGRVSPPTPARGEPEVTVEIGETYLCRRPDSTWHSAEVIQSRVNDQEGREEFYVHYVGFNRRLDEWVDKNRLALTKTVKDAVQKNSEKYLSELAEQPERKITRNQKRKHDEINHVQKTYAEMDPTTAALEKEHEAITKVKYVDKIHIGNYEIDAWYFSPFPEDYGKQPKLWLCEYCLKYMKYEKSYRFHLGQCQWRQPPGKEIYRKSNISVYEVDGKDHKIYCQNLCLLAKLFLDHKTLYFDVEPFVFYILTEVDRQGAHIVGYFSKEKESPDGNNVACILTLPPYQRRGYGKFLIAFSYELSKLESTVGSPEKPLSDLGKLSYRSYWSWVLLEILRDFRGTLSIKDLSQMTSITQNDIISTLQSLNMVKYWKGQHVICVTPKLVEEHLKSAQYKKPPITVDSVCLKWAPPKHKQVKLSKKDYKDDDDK
Summary of the method: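 Acetylation of 1 μM peptide substrate with 5 μM acetyl-CoA by 12.5 nM enzyme, compound pre-incubated, 2% DMSO, Tris pH 8.0 buffer with DTT, 25 °C for 90 min. Quench with 0.5% formic acid; product read by SAMDI mass spectrometry to give IC50.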

KAT-5 = KAT-5 (Homo sapiens (Human), UniProt Q92993); assay: KAT-5 biochemical inhibition assay (SAMDI mass spectrometry)
KAT-5, sequence (Q92993 other isoform, or with tags, fused parts or gaps): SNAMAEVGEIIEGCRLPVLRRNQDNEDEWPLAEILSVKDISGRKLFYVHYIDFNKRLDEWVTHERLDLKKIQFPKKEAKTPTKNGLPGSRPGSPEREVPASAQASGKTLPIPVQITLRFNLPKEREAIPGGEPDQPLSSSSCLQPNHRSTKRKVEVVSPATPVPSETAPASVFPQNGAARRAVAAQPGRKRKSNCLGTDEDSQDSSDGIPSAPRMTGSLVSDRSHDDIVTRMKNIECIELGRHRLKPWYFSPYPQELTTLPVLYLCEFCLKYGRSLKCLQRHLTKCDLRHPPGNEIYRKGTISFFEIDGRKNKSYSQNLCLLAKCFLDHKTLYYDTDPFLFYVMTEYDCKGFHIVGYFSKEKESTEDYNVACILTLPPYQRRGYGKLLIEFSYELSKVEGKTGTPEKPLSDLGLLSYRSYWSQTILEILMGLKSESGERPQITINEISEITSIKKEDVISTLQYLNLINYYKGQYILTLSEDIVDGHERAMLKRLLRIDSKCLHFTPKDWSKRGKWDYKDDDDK
Summary of the method: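 Acetylation of 1 μM peptide by 9 nM enzyme with 0.5 μM acetyl-CoA (final) was run 90 min at 25° C in Tris pH 8.0 buffer with DTT, after compound preincubation at 2% DMSO. Formic acid stopped the reaction, and product was quantified by SAMDI mass spectrometry to derive IC50.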

KAT-7 = KAT-7 (Homo sapiens (Human), UniProt O95251); assay: KAT-7 biochemical inhibition assay (SAMDI mass spectrometry)
KAT-7, sequence (O95251 other isoform, or with tags, fused parts or gaps): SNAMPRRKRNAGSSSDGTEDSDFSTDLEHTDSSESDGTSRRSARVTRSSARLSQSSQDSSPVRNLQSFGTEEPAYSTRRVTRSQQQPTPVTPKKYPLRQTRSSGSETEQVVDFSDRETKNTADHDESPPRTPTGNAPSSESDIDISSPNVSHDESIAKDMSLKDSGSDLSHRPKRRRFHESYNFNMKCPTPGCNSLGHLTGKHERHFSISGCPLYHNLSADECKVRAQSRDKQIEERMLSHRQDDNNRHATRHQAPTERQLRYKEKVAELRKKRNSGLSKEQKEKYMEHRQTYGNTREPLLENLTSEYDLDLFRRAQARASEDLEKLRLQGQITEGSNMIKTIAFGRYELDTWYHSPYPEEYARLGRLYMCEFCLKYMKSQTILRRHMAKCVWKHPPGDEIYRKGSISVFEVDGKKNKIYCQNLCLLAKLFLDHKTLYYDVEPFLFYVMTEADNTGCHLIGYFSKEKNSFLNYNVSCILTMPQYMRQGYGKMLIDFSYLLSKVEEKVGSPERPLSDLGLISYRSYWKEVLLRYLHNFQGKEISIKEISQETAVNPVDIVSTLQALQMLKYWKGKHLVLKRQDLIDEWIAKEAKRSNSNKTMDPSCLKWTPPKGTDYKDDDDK
Summary of the method: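 Read-out was SAMDI time-of-flight MS of formic acid-quenched reactions (0.5% final). Compound dilutions (2% DMSO final) were pre-incubated with 6 nM KAT-7 in 50 mM Tris pH 8.0 with 1 mM DTT, then given 1 μM peptide substrate and 2 μM acetyl-CoA for 120 min at 25 °C. IC50 values were derived.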

KAT-6A, sequence (Q92794 other isoform, or with tags, fused parts or gaps): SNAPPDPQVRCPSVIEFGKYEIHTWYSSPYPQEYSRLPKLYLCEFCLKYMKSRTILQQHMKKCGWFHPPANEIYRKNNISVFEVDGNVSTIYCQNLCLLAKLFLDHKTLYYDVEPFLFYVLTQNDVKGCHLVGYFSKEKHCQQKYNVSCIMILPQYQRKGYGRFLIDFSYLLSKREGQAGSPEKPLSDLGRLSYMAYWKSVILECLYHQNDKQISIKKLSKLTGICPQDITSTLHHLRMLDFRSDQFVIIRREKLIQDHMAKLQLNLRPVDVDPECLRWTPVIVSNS

Structure (SMILES)	IC50 (KAT-6A)	IC50 (KAT-8)	IC50 (KAT-5)	IC50 (KAT-7)
Cn1cnc(-c2cc(Cl)c(F)c(C(=O)NNS(=O)(=O)C3CCCC3)c2)c1 [Compound I-15]	50 to 100 µM	> 100 µM	10 to 50 µM	< 10 µM
O=C(NNS(=O)(=O)CC1CCOCC1)c1cc(-n2ccnn2)cc(Cl)c1F [Compound I-90]	10 to 50 µM	10 to 50 µM	10 to 50 µM	10 to 50 µM
Cn1cnc(-c2cc(Cl)c(F)c(C(=O)NNS(=O)(=O)CC3CCC(NC(N)=O)C3)c2)c1 (stereo not drawn) [Compound I-340]	< 10 µM	10 to 50 µM	< 10 µM	< 10 µM
Cn1cnc(-c2cc(Cl)c(F)c(C(=O)NNS(=O)(=O)C[C@H]3CC[C@H](NS(C)(=O)=O)CC3)c2)c1 [Compound I-211]	< 10 µM	10 to 50 µM	< 10 µM	< 10 µM
Cn1cnc(-c2cc(Cl)c(F)c(C(=O)NNS(=O)(=O)CC3CCN(S(C)(=O)=O)C3)c2)c1 (stereo not drawn) [Compound I-63]	< 10 µM	10 to 50 µM	< 10 µM	< 10 µM
Cn1c(Cl)nc(-c2cc(Cl)c(F)c(C(=O)NNS(=O)(=O)C3CCOCC3)c2)c1Cl [Compound I-11]	10 to 50 µM	> 100 µM	50 to 100 µM	50 to 100 µM
Cn1cnc(-c2cc(Cl)c(F)c(C(=O)NNS(=O)(=O)CC3CCN(S(=O)(=O)C4CC4)C3)c2)c1 (stereo not drawn) [Compound I-84]	< 10 µM	10 to 50 µM	< 10 µM	< 10 µM
Cn1cnc(-c2cc(Cl)c(F)c(C(=O)NNS(=O)(=O)c3cncs3)c2)c1 [Compound I-257]	10 to 50 µM	10 to 50 µM	10 to 50 µM	10 to 50 µM
COCCOc1ccc(S(=O)(=O)NNC(=O)c2cc(-c3cn(C)cn3)cc(Cl)c2F)cc1 [Compound I-369]	10 to 50 µM	10 to 50 µM	< 10 µM	< 10 µM
C[C@@H]1CN(C(=O)OC(C)(C)C)C[C@H]1CS(=O)(=O)NNC(=O)c1cc(-c2cn(C)cn2)cc(Cl)c1F [Compound I-267]	10 to 50 µM	10 to 50 µM	< 10 µM	< 10 µM
CCN(C)C(=O)NC1CCC(CS(=O)(=O)NNC(=O)c2cc(-c3cn(C)cn3)cc(Cl)c2F)C1 (stereo not drawn) [Compound I-291]	10 to 50 µM	10 to 50 µM	< 10 µM	< 10 µM
COc1ccc(CNC(=O)N2CC(CS(=O)(=O)NNC(=O)c3cc(-c4cn(C)cn4)cc(Cl)c3F)C2)cc1 [Compound I-203]	< 10 µM	10 to 50 µM	< 10 µM	< 10 µM
CNC(=O)N1CCC(CS(=O)(=O)NNC(=O)c2cc(-c3cn(C)cn3)cc(Cl)c2F)C1 (stereo not drawn) [Compound I-78]	10 to 50 µM	10 to 50 µM	< 10 µM	< 10 µM
CN1CCC(CS(=O)(=O)NNC(=O)c2cc(-c3cn(C)cn3)cc(Cl)c2F)C1 (stereo not drawn) [Compound I-79]	10 to 50 µM	10 to 50 µM	10 to 50 µM	< 10 µM
Cc1cc(-c2cn(C)cn2)cc(C(=O)NNS(=O)(=O)C2CCCCC2)c1F [Compound I-127]	10 to 50 µM	> 100 µM	< 10 µM	< 10 µM
Cn1cnc(-c2cc(Cl)c(F)c(C(=O)NNS(=O)(=O)CC3CN(C(N)=O)C3)c2)c1 [Compound I-208]	10 to 50 µM	10 to 50 µM	10 to 50 µM	< 10 µM
Cn1cnc(-c2cc(Cl)c(F)c(C(=O)NNS(=O)(=O)CC3CCOCC3)c2)c1 [Compound I-1]	< 10 µM	> 100 µM	< 10 µM	< 10 µM
CNC(=O)N[C@H]1C[C@@H](CS(=O)(=O)NNC(=O)c2cc(-c3cn(C)cn3)cc(Cl)c2F)C1 [Compound I-186]	< 10 µM	10 to 50 µM	< 10 µM	< 10 µM
Cn1cnc(-c2cc(Cl)c(F)c(C(=O)NNS(=O)(=O)C[C@H]3CC[C@H](NC(=O)C4CCC4)CC3)c2)c1 [Compound I-196]	< 10 µM	10 to 50 µM	< 10 µM	< 10 µM
CC(C)NC(=O)N1CCC(CS(=O)(=O)NNC(=O)c2cc(-c3cn(C)cn3)cc(Cl)c2F)C1 (stereo not drawn) [Compound I-198]	< 10 µM	10 to 50 µM	< 10 µM	< 10 µM
CCOC1CCC(CS(=O)(=O)NNC(=O)c2cc(-c3cn(C)cn3)cc(Cl)c2F)CC1 (stereo not drawn) [Compound I-347]	< 10 µM	10 to 50 µM	< 10 µM	< 10 µM

Structure (SMILES)	IC50 (KAT-6A)	IC50 (KAT-8)	IC50 (KAT-5)	IC50 (KAT-7)
CC1CCNCC1CS(=O)(=O)NNC(=O)c1cc(-c2cn(C)cn2)cc(Cl)c1F (stereo not drawn) [Compound I-307]	10 to 50 µM	10 to 50 µM	10 to 50 µM	10 to 50 µM
Cc1cnn(-c2cc(Cl)c(F)c(C(=O)NNS(=O)(=O)CC3CCOCC3)c2)c1 [Compound I-36]	< 10 µM	> 100 µM	10 to 50 µM	< 10 µM
Cn1cnc(-c2cc(Cl)c(F)c(C(=O)NNS(=O)(=O)CC3CCC(NC(=O)N4CCCCC4)C3)c2)c1 (stereo not drawn) [Compound I-345]	< 10 µM	10 to 50 µM	< 10 µM	< 10 µM
Cn1cnc(-c2cc(Cl)c(F)c(C(=O)NNS(=O)(=O)CC3CCCNC3)c2)c1 (stereo not drawn) [Compound I-7]	50 to 100 µM	> 100 µM	10 to 50 µM	< 10 µM
CCn1c(-c2cc(Cl)c(F)c(C(=O)NNS(=O)(=O)C3CCCCC3)c2)cnc1C [Compound I-61]	> 100 µM	> 100 µM	> 100 µM	10 to 50 µM
CNc1ccccc1S(=O)(=O)NNC(=O)c1cc(-c2cn(C)cn2)cc(Cl)c1F [Compound I-385]	< 10 µM	> 100 µM	< 10 µM	< 10 µM
COCCn1cnc(-c2cc(C)c(F)c(C(=O)NNS(=O)(=O)C3CCOCC3)c2)c1 [Compound I-138]	> 100 µM	> 100 µM	10 to 50 µM	50 to 100 µM
Cn1cnc(-c2cc(Cl)c(F)c(C(=O)NNS(=O)(=O)C[C@H]3CC[C@H](NC(=O)Cc4ccccc4)CC3)c2)c1 [Compound I-229]	< 10 µM	10 to 50 µM	< 10 µM	< 10 µM
CC(C1CCCCC1)S(=O)(=O)NNC(=O)c1cc(-c2cn(C)cn2)cc(Cl)c1F (stereo not drawn) [Compound I-256]	< 10 µM	10 to 50 µM	< 10 µM	< 10 µM
COc1ccc(CN(C)C(=O)N2CC[C@H](CS(=O)(=O)NNC(=O)c3cc(-c4cn(C)cn4)cc(Cl)c3F)C2)cc1 [Compound I-162]	10 to 50 µM	10 to 50 µM	< 10 µM	< 10 µM
Cn1cnc(-c2cc(Cl)c(F)c(C(=O)NNS(=O)(=O)c3nccn3C)c2)c1 [Compound I-284]	< 10 µM	10 to 50 µM	10 to 50 µM	< 10 µM
CCO[C@H]1CCC[C@H](CS(=O)(=O)NNC(=O)c2cc(-c3cn(C)cn3)cc(Cl)c2F)C1 [Compound I-357]	< 10 µM	10 to 50 µM	< 10 µM	< 10 µM
COc1ccc(CNC(=O)NC2CCC(CS(=O)(=O)NNC(=O)c3cc(-c4cn(C)cn4)cc(Cl)c3F)C2)cc1 (stereo not drawn) [Compound I-327]	< 10 µM	10 to 50 µM	< 10 µM	< 10 µM
CCn1cnc(-c2cc(Cl)c(F)c(C(=O)NNS(=O)(=O)CC3CCCCC3)c2)c1C [Compound I-28]	> 100 µM	> 100 µM	10 to 50 µM	< 10 µM
Cc1cc(-c2cn(C)cn2)cc(C(=O)NNS(=O)(=O)CC2CCCCC2)c1C [Compound I-145]	> 100 µM	> 100 µM	> 100 µM	10 to 50 µM
Cn1cnc(-c2cc(Cl)c(F)c(C(=O)NNS(=O)(=O)c3ccccc3)c2)c1 [Compound I-110]	< 10 µM	10 to 50 µM	< 10 µM	< 10 µM
CCNC(=O)N[C@@H]1CCC[C@@H](CS(=O)(=O)NNC(=O)c2cc(-c3cn(C)cn3)cc(Cl)c2F)C1 [Compound I-355]	< 10 µM	10 to 50 µM	< 10 µM	< 10 µM
Cn1cnc(-c2cc(Cl)c(F)c(C(=O)NNS(=O)(=O)C[C@H]3CCOC3)c2)c1 [Compound I-371]	< 10 µM	10 to 50 µM	< 10 µM	< 10 µM
CCC(=O)N(C)C1CCC(CS(=O)(=O)NNC(=O)c2cc(-c3cn(C)cn3)cc(Cl)c2F)CC1 (stereo not drawn) [Compound I-326]	< 10 µM	10 to 50 µM	< 10 µM	< 10 µM
CCNC(=O)N1CCC(CS(=O)(=O)NNC(=O)c2cc(-c3cn(C)cn3)cc(Cl)c2F)C1 (stereo not drawn) [Compound I-64]	< 10 µM	10 to 50 µM	< 10 µM	< 10 µM
CCNC(=O)N[C@@H]1CCC[C@H](CS(=O)(=O)NNC(=O)c2cc(-c3cn(C)cn3)cc(Cl)c2F)C1 [Compound I-266]	< 10 µM	10 to 50 µM	< 10 µM	< 10 µM
